Assay results reported in patent US20250367166A1, “NEXT GENERATION DIPROVOCIMS THAT ACTIVATE THE INNATE AND ADAPTIVE IMMUNE RESPONSE” (The Scripps Research Institute, priority 2022, published 2025).
Like-named read-outs stand apart in the source and are kept apart here.

Assays:
[1] = biological target: T1, TLR1/TLR2 (Homo sapiens, UniProt O60603+Q15399); details: table of b113, in parentheses; cited from earlier work
[2] = biological target: T2, TLR1/TLR2 (Mus musculus, UniProt Q9EPQ1+Q9QUN7); details: cited from earlier work
T2 sequence (Q9EPQ1 26-795): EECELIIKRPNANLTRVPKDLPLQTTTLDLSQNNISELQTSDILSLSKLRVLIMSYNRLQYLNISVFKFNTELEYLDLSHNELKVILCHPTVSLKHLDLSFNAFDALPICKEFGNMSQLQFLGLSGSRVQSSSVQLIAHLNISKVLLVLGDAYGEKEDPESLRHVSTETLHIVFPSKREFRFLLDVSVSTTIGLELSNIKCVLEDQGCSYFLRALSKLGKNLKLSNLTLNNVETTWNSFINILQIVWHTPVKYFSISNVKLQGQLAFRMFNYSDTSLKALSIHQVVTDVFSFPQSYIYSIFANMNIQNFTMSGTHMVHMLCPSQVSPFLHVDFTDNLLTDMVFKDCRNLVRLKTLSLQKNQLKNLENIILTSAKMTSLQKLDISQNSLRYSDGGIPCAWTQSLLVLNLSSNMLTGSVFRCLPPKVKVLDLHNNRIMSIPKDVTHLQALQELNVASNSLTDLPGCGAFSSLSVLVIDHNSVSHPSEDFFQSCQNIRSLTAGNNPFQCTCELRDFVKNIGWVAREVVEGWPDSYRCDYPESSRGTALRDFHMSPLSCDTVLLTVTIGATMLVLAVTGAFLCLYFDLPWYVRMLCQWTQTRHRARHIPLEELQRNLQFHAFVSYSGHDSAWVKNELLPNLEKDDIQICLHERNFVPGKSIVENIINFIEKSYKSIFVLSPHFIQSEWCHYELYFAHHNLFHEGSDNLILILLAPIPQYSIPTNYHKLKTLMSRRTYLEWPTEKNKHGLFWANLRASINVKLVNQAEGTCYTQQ
T2 sequence (Q9QUN7 25-784): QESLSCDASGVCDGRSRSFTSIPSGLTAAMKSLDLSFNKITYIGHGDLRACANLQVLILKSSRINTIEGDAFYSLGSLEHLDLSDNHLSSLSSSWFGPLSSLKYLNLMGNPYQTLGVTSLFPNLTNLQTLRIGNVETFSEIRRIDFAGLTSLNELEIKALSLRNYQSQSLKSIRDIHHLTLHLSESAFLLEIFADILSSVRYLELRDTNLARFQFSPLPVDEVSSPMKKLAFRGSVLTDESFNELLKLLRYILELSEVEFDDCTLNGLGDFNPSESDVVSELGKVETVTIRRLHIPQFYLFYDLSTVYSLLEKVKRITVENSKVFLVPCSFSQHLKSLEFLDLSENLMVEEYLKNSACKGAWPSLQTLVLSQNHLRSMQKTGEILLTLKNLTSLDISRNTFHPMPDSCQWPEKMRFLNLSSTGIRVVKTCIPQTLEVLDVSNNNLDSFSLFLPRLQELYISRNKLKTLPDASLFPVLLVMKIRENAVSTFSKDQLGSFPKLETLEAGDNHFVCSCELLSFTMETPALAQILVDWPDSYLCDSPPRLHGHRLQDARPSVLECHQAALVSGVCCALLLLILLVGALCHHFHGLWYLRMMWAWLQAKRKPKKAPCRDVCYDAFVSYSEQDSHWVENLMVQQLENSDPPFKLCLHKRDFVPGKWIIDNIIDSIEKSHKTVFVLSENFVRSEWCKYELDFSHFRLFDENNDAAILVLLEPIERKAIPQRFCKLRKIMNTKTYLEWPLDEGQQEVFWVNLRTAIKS

[3] = system: SIINFEKL-loaded C57BL/6J splenocytes; assay: In vivo CTL assay after i.m. immunization with OVA plus diprovocim; parameters: species or system C57BL/6J mice; details: 200 μg diprovocim + 100 μg OVA, 9 days after initial immunization and 9 days after boost
Method: (§1) Mice were injected i.m. on day 0 and day 28 (FIG. 1) with 100 μg OVA alone, or 100 μg OVA mixed with vehicle (DMSO:Tween 80:saline=1:1:8), or mixed with 200 μg diprovocim-1 (TNF-α 1) or diprovocim-X (TNF-α 35) per mouse. EndoFit ovalbumin (OVA) with >98% purity minimum (SDS-PAGE) and endotoxin levels <1 EU/mg was purchased from Invivogen.
On day 9 and day 37 (FIG. 1), naive C57BL/6J mice were killed, and splenocytes were collected. […] The unpulsed and peptide-pulsed cells were labeled, respectively, with […] (“low”) or […] (“high”) CellTrace Violet (Invitrogen) in serum-free medium for 20 min. Equal numbers (2×10^6) of CellTrace Violet^high (OVA pulsed) and CellTrace Violet^low (unpulsed) cells were mixed together and injected intravenously into the immunized mice.
After 48 h, blood from treated mice was collected and subjected to flow cytometry analysis. The numbers of remaining live CellTrace Violet^high and CellTrace Violet^low cells were determined and used to calculate the percentage of OVA peptide-pulsed target cells killed. Specific killing was defined as the ratio=CellTrace Violet^low cells/CellTrace Violet^high cells. The percentage of target cell lysis=[1−unimmunized ratio/immunized ratio]×100.

[4] = system: OVA-specific IgG, IgG1, or IgG2b; assay: Antibody response assay: serum OVA-specific IgG, IgG1, IgG2b by ELISA; format: in vivo, C57BL/6J mice; details: 14 days after a single immunization, with OVA
Method: as §1
On day 14 (FIG. 1), serum titers of OVA-specific IgG, IgG1, or IgG2b (SouthernBiotech) were measured by ELISA. Nunc MaxiSorp flat-bottom 96-well microplates (Thermo Fisher Scientific) were coated with 5 μg/mL soluble OVA (Invivogen) and incubated at 4° C. overnight (ca. 18 h). Plates were washed four times with washing buffer (0.05% [vol/vol] Tween-20 in PBS), then blocked with 1% (vol/vol) BSA in PBS for 1 h at room temperature. Serum samples diluted in 1% (vol/vol) BSA were added to the prepared plates and incubated for 2 h. The plates were washed eight times with washing buffer and then incubated with HRP-conjugated goat anti-mouse IgG, IgG1, or IgG2b for 1 h at room temperature. Plates were washed eight times with washing buffer, then developed with SureBlue TMB Microwell Peroxidase Substrate and TMB Stop Solution (KPL). Absorbance was measured at 450 nm on a Synergy Neo2 Plate Reader (BioTek).

[5] = system: B16-OVA melanoma; assay: Tumor growth assay, B16-OVA melanoma in immunized mice; format: in vivo, C57BL/6J mice; details: inoculation 10 days after the second challenge; anti-mPD-L1 i.p.
Method: as §1
B16-OVA cells (B16F10 melanoma cells stably expressing chicken ovalbumin) were grown in DMEM containing 10% vol/vol FBS. On day 38 (FIG. 1), a total of 2×10^5 B16-OVA cells in 100 μL PBS were injected s.c. into the right flank of 17 week-old male C57BL/6J mice to establish tumors. On days 41, 44, and 47, the mice were injected i.p. with 200 μg checkpoint inhibitor (anti-mPD-L1, BioXcell) in 100 μL saline. Tumors were measured with a digital caliper (Fisher) and the tumor sizes were calculated using the following formula: volume=0.5×length×width^2. Mice were sacrificed when the tumor length or width reached 2 cm.

[6] = In vivo adjuvant activity, i.m. co-administration with ovalbumin; details: for adjuvant activity in mice (CD4- and CD-8-dependent responses): with OVA, i.m.
Method: C57BL/6J mice were purchased from The Jackson Laboratory. All study procedures using mice were approved by the Institutional Animal Care and Use Committee (IACUC) of the University of Texas Southwestern Medical Center and were conducted in accordance with institutionally approved protocols and guidelines for animal care and use. All the mice were maintained at the University of Texas Southwestern Medical Center in accordance with institutionally approved protocols.
EndoFit ovalbumin (OVA) with >98% purity minimum (SDS-PAGE) and endotoxin levels <1 EU/mg was purchased from Invivogen.

[7] = system: B16-OVA melanoma; details: background; diprovocim/OVA i.m.; cited from earlier work
[8] = background; cited from earlier work
[9] = biological target: T1, TLR1/TLR2; assay: TNF-α release from PMA-differentiated human THP-1 cells (ELISA); details: for Emax: THP-1, 4 h, read-out: Efficacy (magnitude) of response versus diprovocim-1 (100%), THP-1;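 for all read-outs here: cells exposed to graded compound concentrations for 4 h, TNF-α quantified in supernatant, LPS as positive and DMSO as negative control, values are duplicate means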
Method: THP-1 (American Type Culture Collection) cells, a human monocytic leukemia cell line, were differentiated by treatment with 100 nM PMA (Sigma) in Roswell Park Memorial Institute (RPMI) cell culture medium [RPMI containing 10% vol/vol FBS (Gemini Bio Products), 1% penicillin and streptomycin (Life Technologies)] for 24 h. After that, the cells were washed with PBS and cultured in fresh RPMI cell culture medium for 24 h before use in studies. PMA-differentiated THP-1 cells were seeded onto 96-well plates at 0.5×10^5 cells per well and treated with systematically varied concentrations of the candidate compounds (dissolved in DMSO, and the final assay DMSO concentration (0.1%) was kept constant in all experiments) for 4 h. Ultra-pure LPS (dissolved in H2O, Enzo Life Sciences) was assessed alongside the compounds as a positive control and DMSO treated control was used as a negative control. Human TNF-α in the supernatants was measured by ELISA (eBioscience). This assay was used for establishing dose-response curves and measured EC50's. EC50's were calculated by Graphpad Prism. All data is the mean of duplicates and SD is within +10% of mean.

[10] = biological target: T2, TLR1/TLR2; assay: TNF-α release from thioglycolate-elicited mouse peritoneal macrophages (ELISA); details: for Emax: 4 h, read-out: Efficacy (magnitude) of response versus diprovocim-1 (100%), mouse macrophages
[11] = read-out: EC50 (nM) (THP-1): EC50 TNF-α release from human THP-1 cells, Table 6
[12] = read-out: EC50 (nM) (mouse): EC50 TNF-α release from mouse macrophages, Table 6

T1 sequence (Q15399 25-786): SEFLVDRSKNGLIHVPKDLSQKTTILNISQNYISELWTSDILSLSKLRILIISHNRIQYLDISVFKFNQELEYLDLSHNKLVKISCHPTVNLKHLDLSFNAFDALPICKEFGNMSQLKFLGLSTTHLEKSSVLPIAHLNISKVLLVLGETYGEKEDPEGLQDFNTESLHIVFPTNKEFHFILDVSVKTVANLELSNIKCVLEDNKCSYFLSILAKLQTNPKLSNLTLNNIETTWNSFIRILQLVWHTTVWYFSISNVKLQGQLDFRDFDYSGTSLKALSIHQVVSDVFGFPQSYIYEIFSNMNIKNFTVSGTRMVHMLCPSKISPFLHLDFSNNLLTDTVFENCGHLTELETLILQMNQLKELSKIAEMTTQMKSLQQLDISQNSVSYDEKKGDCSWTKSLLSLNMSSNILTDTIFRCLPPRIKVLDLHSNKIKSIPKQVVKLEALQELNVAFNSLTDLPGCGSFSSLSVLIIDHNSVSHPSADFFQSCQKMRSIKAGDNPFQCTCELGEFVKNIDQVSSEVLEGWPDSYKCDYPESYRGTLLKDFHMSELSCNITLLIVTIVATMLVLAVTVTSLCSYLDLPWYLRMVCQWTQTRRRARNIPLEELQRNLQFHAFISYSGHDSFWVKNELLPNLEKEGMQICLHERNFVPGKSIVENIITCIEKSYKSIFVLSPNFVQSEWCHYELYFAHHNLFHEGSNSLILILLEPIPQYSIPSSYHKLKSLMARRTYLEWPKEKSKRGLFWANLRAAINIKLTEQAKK
T1 sequence (O60603 21-784): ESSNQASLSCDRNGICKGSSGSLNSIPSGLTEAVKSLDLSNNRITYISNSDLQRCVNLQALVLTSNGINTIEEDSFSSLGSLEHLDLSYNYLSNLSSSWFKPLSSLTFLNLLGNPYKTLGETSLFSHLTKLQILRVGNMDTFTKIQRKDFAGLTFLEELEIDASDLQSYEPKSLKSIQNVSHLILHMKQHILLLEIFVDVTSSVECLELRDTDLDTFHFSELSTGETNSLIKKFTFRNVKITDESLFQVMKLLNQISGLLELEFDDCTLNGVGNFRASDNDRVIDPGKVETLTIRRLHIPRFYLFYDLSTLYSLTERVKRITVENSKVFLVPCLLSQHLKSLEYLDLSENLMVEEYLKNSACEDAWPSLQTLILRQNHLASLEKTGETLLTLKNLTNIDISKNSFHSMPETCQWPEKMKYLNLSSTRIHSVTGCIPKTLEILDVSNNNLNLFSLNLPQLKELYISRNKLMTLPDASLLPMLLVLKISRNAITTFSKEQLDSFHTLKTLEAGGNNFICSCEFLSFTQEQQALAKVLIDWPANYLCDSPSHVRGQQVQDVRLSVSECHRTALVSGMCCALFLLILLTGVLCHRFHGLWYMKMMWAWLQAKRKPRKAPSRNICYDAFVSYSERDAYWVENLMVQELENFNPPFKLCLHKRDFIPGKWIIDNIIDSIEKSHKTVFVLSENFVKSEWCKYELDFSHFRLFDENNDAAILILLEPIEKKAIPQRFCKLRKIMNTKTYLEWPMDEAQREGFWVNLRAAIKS

O=C(O)[C@@H]1CN(C(=O)c2ccc(C(=O)N3C[C@@H](C(=O)N[C@H]4C[C@@H]4c4ccccc4)[C@H](C(=O)N[C@H]4C[C@@H]4c4ccccc4)C3)cc2)C[C@H]1C(=O)N[C@H]1C[C@@H]1c1ccccc1 [Compound 2]
Efficacy (magnitude) of response versus diprovocim-1 (100%), THP-1 [1]: 110% | EC50 ([2]; table of b113, prior observation ref 15, read-out: EC50 (nM) (mouse): EC50 TNF-α release from mouse macrophages): > 5000 nM

O=C(N[C@H]1C[C@@H]1c1ccccc1)[C@@H]1CN(C(=O)c2ccc(C(=O)N3C[C@@H](C(=O)N[C@H]4C[C@@H]4c4ccccc4)[C@H](C(=O)N[C@H]4C[C@@H]4c4ccccc4)C3)cc2)C[C@H]1C(=O)N[C@H]1C[C@@H]1c1ccccc1 [Compound 1, reference compound]
in vivo cytotoxicity against OVA peptide-loaded C57BL/6J splenocytes (CTL, FIG. 2A) [3]: induced strong in vivo cytotoxicity | OVA-specific circulating antibodies of different subtypes by ELISA (FIGS. 3A-3C) [4]: strong responses | Resistance to B16-OVA melanoma (FIG. 2B) [5]: notably enhanced | overt toxicity when used as an adjuvant ([6]; compared with LPS administration): did not display the overt toxicity | adjuvant activity in mice (CD4- and CD-8-dependent responses) [6]: comparable adjuvant activity | Efficacy (magnitude) of response versus diprovocim-1 (100%), THP-1 [1]: 100% | Efficacy (magnitude) of response versus diprovocim-1 (100%), mouse macrophages ([2]; table of b113, in parentheses): 100% | effect of combination with anti-PD-L1 on B16-OVA tumors in mice [7]: eradicated tumors | adjuvant activity in mice when co-administered i.m. with ovalbumin [8]: effective adjuvant

CC(C)(C)OC(=O)NCC(=O)OCCCCCCCCCCCCNC(=O)[C@@H]1CN(C(=O)c2ccc(C(=O)N3C[C@@H](C(=O)N[C@H]4C[C@@H]4c4ccccc4)[C@H](C(=O)N[C@H]4C[C@@H]4c4ccccc4)C3)cc2)C[C@H]1C(=O)N[C@H]1C[C@@H]1c1ccccc1 [Compound 35, 12-((3S,4S)-1-(4-((3S,4S)-3,4-Bis(((1S,2R)-2-phenylcyclopropyl)carbamoyl)-pyrrolidine-1-carbonyl)benzoyl)-4-(((1S,2R)-2-phenyl-cyclopropyl)carbamoyl)-pyrrolidine-3-carboxamido)-dodecyl-2-((tert-butoxycarbonyl)-amino)acetate]
in vivo cytotoxicity against OVA peptide-loaded C57BL/6J splenocytes (CTL, FIG. 2A) [3]: induced strong in vivo cytotoxicity | OVA-specific circulating antibodies of different subtypes by ELISA (FIGS. 3A-3C) [4]: strong responses | Resistance to B16-OVA melanoma (FIG. 2B) [5]: notably enhanced | adjuvant activity in mice (CD4- and CD-8-dependent responses) [6]: matching or surpassing the activity of diprovocim-1 | efficacy relative to that of diprovocim-1 in human THP-1 cells [9]: 100% | Efficacy (magnitude) of response versus diprovocim-1 (100%), THP-1 ([9]; Table 3, in parentheses): 100% | Efficacy (magnitude) of response versus diprovocim-1 (100%), THP-1 ([9]; Table 5, in parentheses): 100% | Efficacy (magnitude) of response versus diprovocim-1 (100%), THP-1 ([9]; Table 6, in parentheses): 100% | EC50 ([9]; read-out: EC50 (nM) (THP-1): EC50 TNF-α release from human THP-1 cells, Table 3): 0.14 nM | EC50 ([9]; read-out: EC50 (nM) (THP-1): EC50 TNF-α release from human THP-1 cells, Table 5): 0.14 nM | EC50 [9, 11]: 0.14 nM | EC50 ([9]; read-out: EC50 in human THP-1 cells): 0.14 nM | efficacy relative to that of diprovocim-1 in mouse macrophages [10]: 550% | fold more active than diprovocim-1 in mouse macrophages [10]: 2 fold | Efficacy (magnitude) of response versus diprovocim-1 (100%), mouse macrophages ([10]; Table 3, in parentheses): 550% | Efficacy (magnitude) of response versus diprovocim-1 (100%), mouse macrophages ([10]; Table 5, in parentheses): 550% | Efficacy (magnitude) of response versus diprovocim-1 (100%), mouse macrophages ([10]; Table 6, in parentheses): 550% | EC50 ([10]; read-out: EC50 (nM) (mouse): EC50 TNF-α release from mouse macrophages, Table 3): 0.75 nM | EC50 ([10]; read-out: EC50 (nM) (mouse): EC50 TNF-α release from mouse macrophages, Table 5): 0.75 nM | EC50 [10, 12]: 0.75 nM | EC50 ([10]; read-out: EC50 in mouse macrophages): 0.75 nM

O=C(O)CCCCCCCCCCCNC(=O)[C@@H]1CN(C(=O)c2ccc(C(=O)N3C[C@@H](C(=O)N[C@H]4C[C@@H]4c4ccccc4)[C@H](C(=O)N[C@H]4C[C@@H]4c4ccccc4)C3)cc2)C[C@H]1C(=O)N[C@H]1C[C@@H]1c1ccccc1 [Compound 11, 12-((3S,4S)-1-(4-((3S,4S)-3,4-Bis(((1S,2R)-2-phenyl-cyclopropyl)carbamoyl)pyrrolidine-1-carbonyl)benzoyl)-4-(((1S,2R)-2-phenylcyclopropyl)carbamoyl)pyrrolidine-3-carboxamido)-dodecanoic acid]
Emax [9]: 100% | EC50 ([9]; read-out: EC50 (nM) (THP-1): EC50 TNF-α release from human THP-1 cells, Table 1): 3.4 nM | Emax [10]: 110% | EC50 ([10]; read-out: EC50 (nM) (mouse): EC50 TNF-α release from mouse macrophages, Table 1): 280 nM

CC(C)(C)OC(=O)Nc1ccc(C(=O)OCCCCCCCCCCCCNC(=O)[C@@H]2CN(C(=O)c3ccc(C(=O)N4C[C@@H](C(=O)N[C@H]5C[C@@H]5c5ccccc5)[C@H](C(=O)N[C@H]5C[C@@H]5c5ccccc5)C4)cc3)C[C@H]2C(=O)N[C@H]2C[C@@H]2c2ccccc2)cc1 [Compound 73, 12-((3S,4S)-1-(4-((3S,4S)-3,4-Bis(((1S,2R)-2-phenyl-cyclopropyl)carbamoyl)pyrrolidine-1-carbonyl)-benzoyl)-4-(((1S,2R)-2-phenylcyclopropyl)carbamoyl)-pyrrolidine-3-carboxamido)-dodecyl 4-((tert-butoxycarbonyl)amino)benzoate]
Emax [9]: 90% | EC50 [9, 11]: 0.57 nM | Emax [10]: 540% | EC50 [10, 12]: 30 nM

CC(C)(C)OC(=O)C(=O)NCC(=O)OCCCCCCCCCCCCNC(=O)[C@@H]1CN(C(=O)c2ccc(C(=O)N3C[C@@H](C(=O)N[C@H]4C[C@@H]4c4ccccc4)[C@H](C(=O)N[C@H]4C[C@@H]4c4ccccc4)C3)cc2)C[C@H]1C(=O)N[C@H]1C[C@@H]1c1ccccc1 [Compound 83, tert-Butyl 2-((2-((12-((3S,4S)-1-(4-((3S,4S)-3,4-bis(((1S,2R)-2-phenylcyclopropyl)carbamoyl)-pyrrolidine-1-carbonyl)benzoyl)-4-(((1S,2R)-2-phenylcyclopropyl)carbamoyl)pyrrolidine-3-carboxamido)dodecyl)oxy)-2-oxoethyl)amino)-2-oxoacetate]
Emax [9]: 110% | EC50 [9, 11]: 0.54 nM | Emax [10]: 400% | EC50 [10, 12]: 16 nM
